IC50 data for 14 molecules are collected here from patent US9145411B2, “Substituted amino-pyrimidine derivatives” (Asana Biosciences, LLC, priority 2012, dated 2015).

One assay deals with pAkt(T308). Put plainly: In-cell Western assay, pAkt(T308), PC3 cells. The format is cell-based. Particulars: Homo sapiens, PC-3, 2 hours incubation. Here is the method: (§1) Cells from human prostate cancer cell line PC3 (American Type Culture Collection (ATCC), Manassas, Va. 20108 USA) were seeded at an optimal density of 22,000 cell/well in 96-well plates containing Ham's F12K medium (90 μL) and incubated overnight. The compound dilutions were carried out in 100% DMSO followed by a dilution in the medium. Test compounds were added in serial dilutions to the wells and incubated for 2 hours. The cells were washed and fixed with 4% paraformaldehyde. After incubation at room temperature for 1 hour in the dark, blocking was done for 2 hours at room temperature. Primary antibodies for pAkt(S473) ([…] phosphorylated at serine 473), pAkt(T308) (Akt phosphorylated at threonine 308) and for pS6RP (S235/236) (phosphorylated at serine 235/236) (commercially available from Cell Signaling Technology®, whose protocol was followed for the in-cell western assay, were diluted to the required concentration and added to the corresponding wells followed by overnight incubation at 4° C. Eu-labeled rabbit (PE) (Perkin-Elmer USA catalog #AD0106) secondary antibody was added and incubated for 2 hours at room temperature. Delfia® enhancement solution (cat #1244-105, Perkin Elmer USA) was subsequently added to the plate before taking the reading at 615 nm with excitation wavelength of 340 nm, after which 0.5 μg/mL of Hoechst® 33258 dye (Catalog #86140-5, Sigma) was added to the plate and fluorescence emission was read at 460 nm with 355 nm excitation, to evaluate the correction factor. IC50 values were calculated using a sigmoidal dose-response curve fit in GraphPad Prism® v5 software.

For the next assay, the target named is T1, PI3Kα (wild-type) (Homo sapiens, UniProt P42336).
T1 construct: made in house; host or cells: SF9 insect cells
T1 sequence (P42336 whole entry, species assumed): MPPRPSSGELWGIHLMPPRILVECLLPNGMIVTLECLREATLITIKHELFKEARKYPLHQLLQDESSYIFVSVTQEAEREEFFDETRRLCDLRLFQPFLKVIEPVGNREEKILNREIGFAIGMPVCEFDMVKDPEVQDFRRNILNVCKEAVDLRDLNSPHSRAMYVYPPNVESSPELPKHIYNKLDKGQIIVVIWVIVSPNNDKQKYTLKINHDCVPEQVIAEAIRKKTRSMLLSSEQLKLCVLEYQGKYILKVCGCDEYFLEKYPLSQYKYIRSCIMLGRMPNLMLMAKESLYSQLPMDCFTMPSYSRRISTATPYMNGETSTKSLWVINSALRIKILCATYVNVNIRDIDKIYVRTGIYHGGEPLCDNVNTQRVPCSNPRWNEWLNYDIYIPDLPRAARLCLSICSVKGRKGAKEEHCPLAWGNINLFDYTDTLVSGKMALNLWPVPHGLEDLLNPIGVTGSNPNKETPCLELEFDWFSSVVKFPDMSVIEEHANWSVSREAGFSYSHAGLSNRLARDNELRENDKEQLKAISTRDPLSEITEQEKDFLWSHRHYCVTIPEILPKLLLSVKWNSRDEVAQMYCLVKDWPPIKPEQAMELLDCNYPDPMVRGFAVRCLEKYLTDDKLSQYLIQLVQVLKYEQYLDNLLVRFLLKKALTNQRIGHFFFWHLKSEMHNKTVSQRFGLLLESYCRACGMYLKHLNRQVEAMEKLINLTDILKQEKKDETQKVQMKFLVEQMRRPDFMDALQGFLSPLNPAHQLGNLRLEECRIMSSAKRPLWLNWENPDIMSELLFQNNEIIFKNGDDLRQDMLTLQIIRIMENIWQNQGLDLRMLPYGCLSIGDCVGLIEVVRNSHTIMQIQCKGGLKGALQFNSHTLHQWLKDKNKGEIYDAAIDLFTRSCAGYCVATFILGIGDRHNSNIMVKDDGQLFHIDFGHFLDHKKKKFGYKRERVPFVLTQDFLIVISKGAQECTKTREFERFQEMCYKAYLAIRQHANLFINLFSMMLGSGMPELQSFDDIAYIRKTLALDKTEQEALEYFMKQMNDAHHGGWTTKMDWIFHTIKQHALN
T1 sequence (P27986 whole entry partner, species assumed): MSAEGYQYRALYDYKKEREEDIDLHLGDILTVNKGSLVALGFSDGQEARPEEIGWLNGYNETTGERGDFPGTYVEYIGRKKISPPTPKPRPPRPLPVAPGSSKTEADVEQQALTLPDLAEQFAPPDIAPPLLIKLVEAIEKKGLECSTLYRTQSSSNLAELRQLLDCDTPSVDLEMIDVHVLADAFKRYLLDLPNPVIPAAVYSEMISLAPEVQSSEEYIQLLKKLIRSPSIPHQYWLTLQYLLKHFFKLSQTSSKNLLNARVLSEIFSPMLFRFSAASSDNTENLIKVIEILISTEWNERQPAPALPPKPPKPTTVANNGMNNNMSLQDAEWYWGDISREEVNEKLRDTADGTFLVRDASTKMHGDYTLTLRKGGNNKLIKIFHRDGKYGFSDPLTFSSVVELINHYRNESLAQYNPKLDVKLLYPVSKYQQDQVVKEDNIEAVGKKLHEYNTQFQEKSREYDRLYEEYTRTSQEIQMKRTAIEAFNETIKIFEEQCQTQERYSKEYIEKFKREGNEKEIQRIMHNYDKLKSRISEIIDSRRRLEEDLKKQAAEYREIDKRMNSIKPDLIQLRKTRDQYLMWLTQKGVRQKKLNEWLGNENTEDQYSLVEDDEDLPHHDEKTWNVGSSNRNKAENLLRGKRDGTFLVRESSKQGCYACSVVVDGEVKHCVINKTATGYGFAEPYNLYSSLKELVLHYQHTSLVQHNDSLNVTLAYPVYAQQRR
Description: PI3 Kinase TR-FRET assay, PI3Kα (wild-type). The format is biochemical. Particulars: wild-type P110/P85α, 10 μM ATP. The procedure, abridged:
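Sf9-expressed, Ni-purified p110/p85α (5 ng) with PIP2 was preincubated with compound for 60 min at room temperature in buffer with 40 mM MgCl2 and 5 mM DTT. The reaction ran 30 min at room temperature with 10 μM PIP2 and 10 μM ATP. The TR-FRET 665/615 nm ratio was used to derive IC50 from dose-response curves.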
A general note: TR-FRET usually uses a lanthanide donor and a delayed reading to cut background.

A further assay concerns PC3 cells. Description: XTT assay for cell viability, PC3 cells. The class given is cell-based. As to conditions: Homo sapiens, PC-3; PC3 cell proliferation, 96 hours. The procedure, abridged: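 Log-phase PC3 cells (1000/well) were seeded for 24 h, then exposed to serially diluted compounds (DMSO dilutions) for 96 h. Viability was measured by XTT dye conversion at 37 °C, with absorbance read at 465 nm. EC50 was obtained from a sigmoidal dose-response fit.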

The test system of the next assay is pS6RP (S235/236). Description: In-cell Western assay, pS6RP (S235/236), PC3 cells. The class given is cell-based. As to conditions: Homo sapiens, PC-3, 2 hours incubation. As to the method: as §1
Another assay deals with T2, mTOR kinase (Homo sapiens, UniProt P42345).
T2 construct: purchased Millipore, USA
T2 sequence (P42345 1362-2549 limits assumed): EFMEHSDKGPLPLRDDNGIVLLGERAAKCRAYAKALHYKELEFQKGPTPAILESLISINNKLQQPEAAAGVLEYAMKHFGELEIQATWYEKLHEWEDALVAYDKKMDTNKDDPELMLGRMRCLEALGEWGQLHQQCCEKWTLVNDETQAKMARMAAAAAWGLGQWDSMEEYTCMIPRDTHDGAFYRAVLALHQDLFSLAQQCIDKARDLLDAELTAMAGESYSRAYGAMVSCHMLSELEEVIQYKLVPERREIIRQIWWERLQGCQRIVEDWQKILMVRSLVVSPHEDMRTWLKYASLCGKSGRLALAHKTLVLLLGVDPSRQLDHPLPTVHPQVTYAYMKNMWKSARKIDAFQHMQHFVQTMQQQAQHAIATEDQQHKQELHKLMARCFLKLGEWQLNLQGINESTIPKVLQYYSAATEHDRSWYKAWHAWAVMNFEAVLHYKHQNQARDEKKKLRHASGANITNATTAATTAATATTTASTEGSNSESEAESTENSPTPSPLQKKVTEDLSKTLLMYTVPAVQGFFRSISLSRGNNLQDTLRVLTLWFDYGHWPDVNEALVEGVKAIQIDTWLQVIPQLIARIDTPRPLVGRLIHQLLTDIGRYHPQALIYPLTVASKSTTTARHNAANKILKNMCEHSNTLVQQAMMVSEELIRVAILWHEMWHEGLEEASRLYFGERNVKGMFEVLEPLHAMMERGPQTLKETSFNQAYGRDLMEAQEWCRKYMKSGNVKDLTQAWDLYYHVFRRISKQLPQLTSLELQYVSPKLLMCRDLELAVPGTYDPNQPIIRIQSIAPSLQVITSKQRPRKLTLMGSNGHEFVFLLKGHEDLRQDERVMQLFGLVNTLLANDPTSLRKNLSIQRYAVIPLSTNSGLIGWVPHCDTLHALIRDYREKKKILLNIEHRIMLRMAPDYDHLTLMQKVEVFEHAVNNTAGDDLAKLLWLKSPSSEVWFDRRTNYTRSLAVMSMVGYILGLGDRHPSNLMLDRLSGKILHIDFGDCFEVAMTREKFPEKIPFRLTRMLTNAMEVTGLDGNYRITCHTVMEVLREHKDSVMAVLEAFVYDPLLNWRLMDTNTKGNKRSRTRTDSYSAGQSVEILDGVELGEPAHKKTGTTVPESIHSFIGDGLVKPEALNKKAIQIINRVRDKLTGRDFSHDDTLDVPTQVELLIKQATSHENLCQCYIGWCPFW
Description: mTOR kinase TR-FRET assay. The class given is biochemical. As to conditions: 20 μM ATP. Put shortly:
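Test compounds were pre-incubated 60 min with mTOR (5 ng), then ULight-p70 S6K (Thr389) peptide (50 nM) and ATP (20 μM) were added in HEPES 50 mM pH 7.5, EGTA, MnCl2 3 mM. After 60 min at room temperature, EDTA stop and Eu-anti-phospho antibody TR-FRET (665/615 nm) gave IC50 from sigmoidal variable-slope fits.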

A further assay deals with pAkt(S473). Description: In-cell Western assay, pAkt(S473), PC3 cells. The class given is cell-based. Particulars: Homo sapiens, PC-3, 2 hours incubation. Here is the method:
as §1

Structures are written as SMILES. A value given as a limit tells only on which side of the number the result lay.

As a reminder, the IC50 is the concentration that inhibits the measured activity by half. Read a low IC50 as greater potency.

As for `Nc1ncc(-c2nc(N3CCOCC3)c3ncc(-c4cccnc4F)cc3n2)cn1` [Example 24, 5-(7-(2-fluoropyridin-3-yl)-4-morpholino-pyrido[3,2-d]pyrimidin-2-yl)pyrimidin-2-amine], the IC50 was 100 to 500 nM with pAkt(T308); under 50 nM on PI3Kα (wild-type); 100 to 500 nM in the assay on PC3 cells; 100 to 500 nM with pS6RP (S235/236); 50 to 200 nM against mTOR kinase; 501 to 5000 nM with pAkt(S473).

As for `Nc1ncc(-c2nc(N3CCOCC3)c3ncc(-c4cncnc4)cc3n2)cn1` [Example 23, 5-(4-morpholino-7-(pyrimidin-5-yl)-pyrido[3,2-d]pyrimidin-2-yl)pyrimidin-2-amine], the IC50 at PI3Kα (wild-type) is under 50 nM; in the assay on PC3 cells, over 1000 nM; in the assay with pS6RP (S235/236) it was 501 to 5000 nM; at mTOR kinase it was 50 to 200 nM; in the assay on pAkt(S473), 100 to 500 nM.

As for `CC(=O)Nc1cc(-c2cnc3c(N4CCOCC4)nc(-c4cnc(N)nc4)nc3c2)ccc1F` [Example 119, N-(5-(2-(2-amino-pyrimidin-5-yl)-4-morpholinopyrido[3,2-d]-pyrimidin-7-yl)-2-fluorophenyl)acetamide], the IC50 in the assay with pAkt(T308) was under 100 nM; against PI3Kα (wild-type), under 50 nM; with PC3 cells it was under 100 nM; in the assay with pS6RP (S235/236) it was under 100 nM; against mTOR kinase, under 50 nM; in the assay with pAkt(S473), 100 to 500 nM.

As for `CN(C)CC(=O)Nc1cccc(-c2cnc3c(N4CCOCC4)nc(-c4cnc(N)nc4)nc3c2)c1` [Example 46, N-(3-(2-(2-amino-pyrimidin-5-yl)-4-morpholinopyrido[3,2-d]pyrimidin-7-yl)phenyl)-2-(dimethylamino)-acetamide], the IC50 against PI3Kα (wild-type) is under 50 nM; in the assay on PC3 cells, 100 to 500 nM; in the assay on pS6RP (S235/236) it was 501 to 5000 nM; on mTOR kinase, under 50 nM.

Turning to `CS(=O)(=O)c1cccc(-c2cnc3c(N4CCOCC4)nc(-c4cnc(N)nc4)nc3c2)c1` [Example 20, 5-(7-(3-(methyl-sulfonyl)phenyl)-4-morpholinopyrido[3,2-d]-pyrimidin-2-yl)pyrimidin-2-amine], the IC50 is under 50 nM on PI3Kα (wild-type), 100 to 500 nM with PC3 cells, 100 to 500 nM in the assay on pS6RP (S235/236) and under 50 nM at mTOR kinase.

Consider `CC(O)C(=O)Nc1cccc(-c2cnc3c(N4CCOCC4)nc(-c4cnc(N)nc4)nc3c2)c1` (stereo not drawn) [Example 45, N-(3-(2-(2-amino-pyrimidin-5-yl)-4-morpholinopyrido[3,2-d]pyrimidin-7-yl)phenyl)-2-hydroxypropanamide], for which the IC50 was 501 to 5000 nM in the assay with pAkt(T308); under 50 nM on PI3Kα (wild-type); under 100 nM with PC3 cells; 100 to 500 nM in the assay with pS6RP (S235/236); under 50 nM at mTOR kinase.

With `CS(=O)(=O)c1cccc(-c2ccc3c(N4CCOCC4)nc(-c4cnc(N)nc4)nc3c2)c1` [Example 1, 5-(7-(3-(Methylsulfonyl)phenyl)-4-morpholinoquinazolin-2-yl)pyrimidin-2-amine], the IC50 was in the range of 501 to 5000 nM in the assay on pAkt(T308); 50 to 200 nM against PI3Kα (wild-type); 501 to 5000 nM with PC3 cells; 100 to 500 nM in the assay with pS6RP (S235/236); 50 to 200 nM against mTOR kinase; 100 to 500 nM in the assay with pAkt(S473).

As to `Cn1cc(-c2cnc3c(N4CCOCC4)nc(-c4cnc(N)nc4)nc3c2)cn1` [Example 22, 5-(7-(1-methyl-1H-pyrazol-4-yl)-4-morpholinopyrido[3,2-d]-pyrimidin-2-yl)pyrimidin-2-amine], the IC50 in the assay with pAkt(T308) was 100 to 500 nM; against PI3Kα (wild-type), under 50 nM; with PC3 cells, under 100 nM; in the assay on pS6RP (S235/236), 100 to 500 nM; on mTOR kinase it was under 50 nM; in the assay with pAkt(S473), 501 to 5000 nM.

Regarding `CC(C)(C)C(=O)Nc1cccc(-c2cnc3c(N4CCOCC4)nc(-c4cnc(N)nc4)nc3c2)c1` [Example 118, N-(3-(2-(2-amino-pyrimidin-5-yl)-4-morpholinopyrido[3,2-d]pyrimidin-7-yl)-phenyl)pivalamide], the IC50 against PI3Kα (wild-type) is under 50 nM; with PC3 cells, 501 to 5000 nM; with pS6RP (S235/236), 501 to 5000 nM; at mTOR kinase, under 50 nM; in the assay on pAkt(S473), 501 to 5000 nM.

With `Nc1ncc(-c2nc(N3CCOCC3)c3ncc(-c4cc(NC(=O)C5CC5)ccc4F)cc3n2)cn1` [Example 95, N-(3-(2-(2-amino-pyrimidin-5-yl)-4-morpholinopyrido[3,2-d]-pyrimidin-7-yl)-4-fluorophenyl)cyclopropane-carboxamide], the IC50 against PI3Kα (wild-type) is under 50 nM; with PC3 cells it was 100 to 500 nM; with pS6RP (S235/236), 100 to 500 nM; on mTOR kinase, 50 to 200 nM; in the assay on pAkt(S473) it was under 100 nM.

For the molecule `CC(=O)Nc1cccc(-c2cnc3c(N4CCOCC4)nc(-c4cnc(N)nc4)nc3c2)c1F` [Example 52, N-(3-(2-(2-amino-pyrimidin-5-yl)-4-morpholinopyrido[3,2-d]pyrimidin-7-yl)-2-fluorophenyl)acetamide], the IC50 in the assay with pAkt(T308) was under 100 nM; at PI3Kα (wild-type) it was under 50 nM; in the assay with PC3 cells it was under 100 nM; with pS6RP (S235/236), under 100 nM; at mTOR kinase it was under 50 nM; in the assay with pAkt(S473), under 100 nM.

For the molecule `Cc1ccc(C(=O)Nc2cccc(-c3cnc4c(N5CCOCC5)nc(-c5cnc(N)nc5)nc4c3)c2)o1` [Example 59, N-(3-(2-(2-amino-pyrimidin-5-yl)-4-morpholinopyrido[3,2-d]pyrimidin-7-yl)phenyl)-5-methylfuran-2-carboxamide], the IC50 was 100 to 500 nM in the assay with pAkt(T308); under 50 nM against PI3Kα (wild-type); 100 to 500 nM in the assay on PC3 cells; under 100 nM in the assay on pS6RP (S235/236); under 50 nM against mTOR kinase; under 100 nM with pAkt(S473).

On to `CS(=O)(=O)c1cccc(-c2cc3nc(-c4cnc(N)nc4)nc(N4CCOCC4)c3cc2F)c1` [Example 2, 5-(6-Fluoro-7-(3-(methylsulfonyl)phenyl)-4-morpholinoquinazolin-2-yl)pyrimidin-2-amine], for which the IC50 was under 50 nM on PI3Kα (wild-type), 501 to 5000 nM in the assay on PC3 cells, 501 to 5000 nM in the assay with pS6RP (S235/236) and 50 to 200 nM on mTOR kinase.

With `Nc1ncc(-c2nc(N3CCOCC3)c3ncc(-c4cccc(NC(=O)CN5CCOCC5)c4)cc3n2)cn1` [Example 84, N-(3-(2-(2-aminopyrimidin-5-yl)-4-morpholinopyrido[3,2-d]pyrimidin-7-yl)phenyl)-2-morpholinoacetamide], the IC50 in the assay with pAkt(T308) is 100 to 500 nM; on PI3Kα (wild-type), under 50 nM; with PC3 cells, 100 to 500 nM; against mTOR kinase it was under 50 nM.
